In paper PMC5247395 (EJNMMI Research, 2017):

Assays:
[1] = n-octanol/PBS distribution coefficient (shake-flask); assay type: physicochemical; conditions: n-octanol/PBS pH 7.4, shake-flask
Method: The distribution coefficients (logD values) of the radioligands were determined by a shake-flask method using liquid-liquid extraction followed by phase separation, as previously reported (Additional file 1). In brief, the PSMA ligands were labeled at a specific activity of 5 MBq/nmol. […] The vials were vortexed vigorously for 1 min and then centrifuged for 6 min for phase separation. The concentration of radioactivity in a defined volume of each layer was measured in a γ-counter (Perkin Elmer, Wallac Wizard 1480). The distribution coefficients were expressed as the logarithm of the ratio of counts per minute (cpm) measured in the n-octanol phase to the cpm measure in the PBS phase. The values are reported as the average of at least three independent measurements (± standard deviation, SD), each performed with five replicates. Data were analyzed for significance using a one-way ANOVA test (GraphPad Prism software, version 7). A p value of <0.05 was considered as statistically significant.

PSMA = biological target: T1, PSMA (Homo sapiens, UniProt Q04609); test: Saturation binding assay on PC-3 PIP cells (PSMA affinity, KD); conditions: for Kd: 30 min at 4 °C, saturation binding; for Relative PSMA-binding affinity: inverse molar ratio of average KD values, ^177Lu-PSMA-617 set to 1
T1 construct: expressed in transfected cells; host or cells: PC-3 PIP cells (PSMA-positive subline of human PC-3 prostate cancer cells), provided by Prof; Martin Pomper, Johns Hopkins
T1 sequence (Q04609 whole entry): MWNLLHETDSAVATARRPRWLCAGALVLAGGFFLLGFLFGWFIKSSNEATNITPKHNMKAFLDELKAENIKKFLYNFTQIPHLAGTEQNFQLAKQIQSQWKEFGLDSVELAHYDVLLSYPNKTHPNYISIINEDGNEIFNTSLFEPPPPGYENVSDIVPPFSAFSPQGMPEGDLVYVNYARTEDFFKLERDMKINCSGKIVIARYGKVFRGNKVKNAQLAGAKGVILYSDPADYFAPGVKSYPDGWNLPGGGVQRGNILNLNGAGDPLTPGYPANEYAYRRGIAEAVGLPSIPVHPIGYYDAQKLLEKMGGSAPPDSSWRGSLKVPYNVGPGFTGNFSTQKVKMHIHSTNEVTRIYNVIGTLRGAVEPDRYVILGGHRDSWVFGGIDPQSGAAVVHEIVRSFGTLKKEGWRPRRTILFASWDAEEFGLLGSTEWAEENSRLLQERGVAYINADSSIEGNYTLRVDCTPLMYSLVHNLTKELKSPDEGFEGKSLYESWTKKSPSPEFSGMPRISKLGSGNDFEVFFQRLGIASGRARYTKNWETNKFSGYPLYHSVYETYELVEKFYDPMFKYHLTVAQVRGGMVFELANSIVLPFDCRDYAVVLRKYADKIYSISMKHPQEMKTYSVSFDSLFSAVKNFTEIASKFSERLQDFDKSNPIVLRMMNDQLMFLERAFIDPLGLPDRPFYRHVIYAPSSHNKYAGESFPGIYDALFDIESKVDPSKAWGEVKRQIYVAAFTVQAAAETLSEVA
Method: Determination of the PSMA affinity was performed by saturation binding assays using PC-3 PIP cells and different concentrations of ^nat/44Sc-, ^nat/177Lu-, ^nat/68Ga-PSMA-617, or ^nat/68Ga-PSMA-11, respectively (Additional file 1).
Determination of the KD values was performed by saturation binding assays using PSMA^pos PC-3 PIP cells. After successful radiolabeling of the PSMA ligands, a 2.5-fold molar excess of the corresponding cold metal was added and the reaction mixture was incubated for another 10 min at 95 °C. Quality control was performed again after reaction of the radioligands with the “cold” metal as described in the main manuscript.
The cells were seeded in 48-well-plates (8 x 10^5 cells in 500 uL RPMI medium/well) allowing adhesion and growth overnight at 37 °C and 5% CO2. For the entire experiment, the well-plates were kept on ice. After removal of the supernatant, the cells were washed once with ice-cold PBS pH 7.4 prior to the addition of different concentrations (1 nM-2 µM) of either ^nat/44Sc-, ^nat/177Lu-, ^nat/67/68Ga-PSMA-617 or ^nat/67/68Ga-PSMA-11 in ice-cold RPMI medium without supplements. For the determination of non-specific binding, cell samples were incubated with 2-phosphonomethyl pentanedioic acid (2-PMPA, 200 μM). The well-plates were incubated for 30 min at 4 °C. Then, the supernatants were removed and the cells washed twice with ice-cold PBS followed by addition of NaOH (1 M, 600 µL) to each well. The cell suspensions were transferred to 4 mL tubes for measurement in a γ-counter (Wallac Wizard 1480, Perkin Elmer). The KD values were determined by plotting specific-binding (total binding minus unspecific binding) against the molar concentration of the added radioligands followed by nonlinear regression analysis using GraphPad Prism 7 software.

[2] = test system: PC-3 PIP/flu tumor-bearing mice; test: Biodistribution in PC-3 PIP/flu tumor-bearing mice; conditions: i.v.; for PC-3 flu Tumor: PSMA^neg xenograft; for PC-3 PIP Tumor: PSMA^pos xenograft
Method: In vivo experiments were approved by the local veterinarian department and conducted in accordance with the Swiss law of animal protection. All mice were obtained from Charles River Laboratories (Sulzfeld, Germany), at the age of 5–6 weeks. Female, athymic nude Balb/c mice were subcutaneously inoculated with PC-3 PIP cells (6 × 10^6 cells in 100 μL Hank’s balanced salt solution (HBSS) with Ca^2+/Mg^2+) on the right shoulder and with PC-3 flu cells (5 × 10^6 cells in 100 μL HBSS with Ca^2+/Mg^2+) on the left shoulder 2 weeks before the performance of the experiments.
Mice were sacrificed at different time points post injection (p.i.) of the radioligands. Selected tissues and organs were collected, weighed and measured using a γ-counter. The results were decay-corrected and listed as a percentage of the injected activity per gram of tissue mass (% IA/g).

O=C([O-])CN1CCN(CC(=O)[O-])CCN(CC(=O)NCC2CCC(C(=O)NC(Cc3ccc4ccccc4c3)C(=O)NCCCCC(NC(=O)NC(CCC(=O)O)C(=O)O)C(=O)O)CC2)CCN(CC(=O)[O-])CC1.[44Sc+3] (centres unmarked) [^44Sc-PSMA-617]
LogD values [1]: −4.21 ± 0.04 | Kd (PSMA): 33 ± 12 nM | Relative PSMA-binding affinity (PSMA): 1.2 | Blood ([2]; 15 min p.i.): 6.76 ± 0.28 % IA/g | Bone ([2]; 15 min p.i.): 2.75 ± 0.73 % IA/g | Heart ([2]; 15 min p.i.): 2.79 ± 0.31 % IA/g | Intestines ([2]; 15 min p.i.): 1.89 ± 0.13 % IA/g | Kidneys ([2]; 15 min p.i.): 37.7 ± 0.82 % IA/g | Liver ([2]; 15 min p.i.): 1.98 ± 0.19 % IA/g | Lung ([2]; 15 min p.i.): 5.24 ± 0.30 % IA/g | Muscle ([2]; 15 min p.i.): 1.37 ± 0.11 % IA/g | Salivary glands ([2]; 15 min p.i.): 2.27 ± 0.22 % IA/g | Spleen ([2]; 15 min p.i.): 3.06 ± 0.18 % IA/g | Stomach ([2]; 15 min p.i.): 2.25 ± 0.16 % IA/g | PC-3 flu Tumor ([2]; 15 min p.i.): 2.14 ± 0.13 % IA/g | PC-3 PIP Tumor ([2]; 15 min p.i.): 36.5 ± 7.44 % IA/g | Blood ([2]; 30 min p.i.): 2.52 ± 0.43 % IA/g | Bone ([2]; 30 min p.i.): 0.92 ± 0.19 % IA/g | Heart ([2]; 30 min p.i.): 1.31 ± 0.14 % IA/g | Intestines ([2]; 30 min p.i.): 1.05 ± 0.32 % IA/g | Kidneys ([2]; 30 min p.i.): 27.8 ± 3.29 % IA/g | Liver ([2]; 30 min p.i.): 0.80 ± 0.05 % IA/g | Lung ([2]; 30 min p.i.): 2.06 ± 0.25 % IA/g | Muscle ([2]; 30 min p.i.): 1.08 ± 0.20 % IA/g | Salivary glands ([2]; 30 min p.i.): 1.21 ± 0.14 % IA/g | Spleen ([2]; 30 min p.i.): 2.20 ± 0.67 % IA/g | Stomach ([2]; 30 min p.i.): 0.91 ± 0.17 % IA/g | PC-3 flu Tumor ([2]; 30 min p.i.): 1.51 ± 0.18 % IA/g | PC-3 PIP Tumor ([2]; 30 min p.i.): 44.4 ± 7.51 % IA/g | Bone ([2]; 2 h p.i.): 0.26 ± 0.13 % IA/g | Heart ([2]; 2 h p.i.): 0.36 ± 0.04 % IA/g | Intestines ([2]; 2 h p.i.): 0.15 ± 0.04 % IA/g | Kidneys ([2]; 2 h p.i.): 5.97 ± 0.90 % IA/g | Liver ([2]; 2 h p.i.): 0.22 ± 0.03 % IA/g | Lung ([2]; 2 h p.i.): 0.37 ± 0.01 % IA/g | Muscle ([2]; 2 h p.i.): 0.36 ± 0.11 % IA/g | Salivary glands ([2]; 2 h p.i.): 0.36 ± 0.07 % IA/g | Spleen ([2]; 2 h p.i.): 0.81 ± 0.34 % IA/g | Stomach ([2]; 2 h p.i.): 0.20 ± 0.05 % IA/g | PC-3 flu Tumor ([2]; 2 h p.i.): 0.32 ± 0.16 % IA/g | PC-3 PIP Tumor ([2]; 2 h p.i.): 46.7 ± 4.36 % IA/g | PC-3 flu Tumor ([2]; 4 h p.i.): 0.40 ± 0.08 % IA/g | PC-3 PIP Tumor ([2]; 4 h p.i.): 51.9 ± 4.05 % IA/g | Blood ([2]; 6 h p.i.): 0.27 ± 0.02 % IA/g | Bone ([2]; 6 h p.i.): 0.65 ± 0.21 % IA/g | Heart ([2]; 6 h p.i.): 0.63 ± 0.10 % IA/g | Intestines ([2]; 6 h p.i.): 0.13 ± 0.01 % IA/g | Kidneys ([2]; 6 h p.i.): 3.09 ± 0.58 % IA/g | Liver ([2]; 6 h p.i.): 0.31 ± 0.02 % IA/g | Lung ([2]; 6 h p.i.): 0.51 ± 0.06 % IA/g | Muscle ([2]; 6 h p.i.): 0.94 ± 0.08 % IA/g | Salivary glands ([2]; 6 h p.i.): 0.75 ± 0.17 % IA/g | Spleen ([2]; 6 h p.i.): 0.90 ± 0.03 % IA/g | Stomach ([2]; 6 h p.i.): 0.39 ± 0.07 % IA/g | PC-3 flu Tumor ([2]; 6 h p.i.): 0.24 ± 0.02 % IA/g | PC-3 PIP Tumor ([2]; 6 h p.i.): 52.0 ± 8.42 % IA/g

O=C([O-])CN1CCN(CC(=O)[O-])CCN(CC(=O)NCC2CCC(C(=O)NC(Cc3ccc4ccccc4c3)C(=O)NCCCCC(NC(=O)NC(CCC(=O)O)C(=O)O)C(=O)O)CC2)CCN(CC(=O)[O-])CC1.[68Ga+3] (centres unmarked) [^68Ga-PSMA-617]
LogD values [1]: −4.30 ± 0.10 | Kd (PSMA): 72 ± 29 nM | Relative PSMA-binding affinity (PSMA): 0.5 | Blood ([2]; 15 min p.i.): 6.88 ± 0.89 % IA/g | Bone ([2]; 15 min p.i.): 1.72 ± 0.06 % IA/g | Heart ([2]; 15 min p.i.): 2.61 ± 0.49 % IA/g | Intestines ([2]; 15 min p.i.): 1.55 ± 0.19 % IA/g | Kidneys ([2]; 15 min p.i.): 22.8 ± 0.81 % IA/g | Liver ([2]; 15 min p.i.): 4.74 ± 0.43 % IA/g | Lung ([2]; 15 min p.i.): 4.70 ± 0.09 % IA/g | Muscle ([2]; 15 min p.i.): 1.53 ± 0.24 % IA/g | Salivary glands ([2]; 15 min p.i.): 2.30 ± 0.37 % IA/g | Spleen ([2]; 15 min p.i.): 3.92 ± 0.28 % IA/g | Stomach ([2]; 15 min p.i.): 1.48 ± 0.09 % IA/g | PC-3 flu Tumor ([2]; 15 min p.i.): 2.30 ± 0.18 % IA/g | PC-3 PIP Tumor ([2]; 15 min p.i.): 28.7 ± 5.26 % IA/g | Blood ([2]; 30 min p.i.): 3.46 ± 0.98 % IA/g | Bone ([2]; 30 min p.i.): 1.00 ± 0.17 % IA/g | Heart ([2]; 30 min p.i.): 1.47 ± 0.34 % IA/g | Intestines ([2]; 30 min p.i.): 0.98 ± 0.28 % IA/g | Kidneys ([2]; 30 min p.i.): 15.5 ± 3.46 % IA/g | Liver ([2]; 30 min p.i.): 2.91 ± 0.65 % IA/g | Lung ([2]; 30 min p.i.): 2.55 ± 0.51 % IA/g | Muscle ([2]; 30 min p.i.): 0.80 ± 0.10 % IA/g | Salivary glands ([2]; 30 min p.i.): 1.06 ± 0.23 % IA/g | Spleen ([2]; 30 min p.i.): 2.50 ± 0.82 % IA/g | Stomach ([2]; 30 min p.i.): 1.09 ± 0.40 % IA/g | PC-3 flu Tumor ([2]; 30 min p.i.): 1.23 ± 0.35 % IA/g | PC-3 PIP Tumor ([2]; 30 min p.i.): 48.5 ± 8.51 % IA/g | Blood ([2]; 2 h p.i.): 0.14 ± 0.00 % IA/g | Bone ([2]; 2 h p.i.): 0.09 ± 0.02 % IA/g | Heart ([2]; 2 h p.i.): 0.09 ± 0.01 % IA/g | Intestines ([2]; 2 h p.i.): 0.12 ± 0.03 % IA/g | Kidneys ([2]; 2 h p.i.): 3.48 ± 0.18 % IA/g | Liver ([2]; 2 h p.i.): 1.60 ± 0.05 % IA/g | Lung ([2]; 2 h p.i.): 0.20 ± 0.00 % IA/g | Muscle ([2]; 2 h p.i.): 0.05 ± 0.01 % IA/g | Salivary glands ([2]; 2 h p.i.): 0.14 ± 0.03 % IA/g | Spleen ([2]; 2 h p.i.): 0.91 ± 0.14 % IA/g | Stomach ([2]; 2 h p.i.): 0.16 ± 0.11 % IA/g | PC-3 flu Tumor ([2]; 2 h p.i.): 0.18 ± 0.03 % IA/g | PC-3 PIP Tumor ([2]; 2 h p.i.): 55.8 ± 14.2 % IA/g
